{"source": "patent US12606557B2", "about": "“Substituted indoles with inhibitory activity” (UNIVERSITY OF PITTSBURGH—OF THE COMMONWEALTH SYSTEM OF …, priority 2020, dated 2026)", "experiment": "Blood pharmacokinetics after a single intraperitoneal dose", "assay_type": "in vivo, male CD1 mice", "settings": "for blood concentrations quantifiable up to: 1 animal out of 3, LLOQ 10.04 ng/mL; for concentration at 0.08 hr / concentration at 0.25 hr / concentration at 0.5 hr / concentration at 1 hr / concentration at 2 hr / concentration at 4 hr / concentration at 8 hr / concentration at 24 hr / AUC(0-inf) / AUC(0-t) / Cmax / Tmax: male, CD1, mouse, in vivo; for concentration at 24 hr: value excluded from data analysis; for AUC(0-inf) / AUC(0-t) / Cmax / Tmax: blood, mean", "method": "The objective of this example was to investigate the blood pharmacokinetics of UPHH-123 in male CD1 mice following a single intraperitoneal dose administration. Eighteen male CD1 mice were divided in two groups as, Group 1 and Group 2 comprising nine mice in each group.\nAnimals in Group 1 were administered intraperitoneally with UPHH-123 solution formulation in 5% NMP, 5% Solutol HS, 30% PEG-400 and 60% normal saline at 10.4 mg/kg dose. Animals in Group 2 were administered intraperitoneally with UPHH-123 solution formulation in 5% NMP, 5% Solutol HS, 30% PEG-400 and 60% normal saline) at 52 mg/kg dose.\nBlood samples (approximately 120 μL) were collected at pre-dose, 0.08, 0.25, 0.5, 1, 2, 4, 8 and 24 hr. The blood samples were collected at each time point in a labeled micro centrifuge tube containing K2EDTA as anticoagulant. Immediately aliquot (50 μL) of blood was hemolyzed with equal volume of water (50 μL) and quenched with three volume (150 μL) of acetonitrile (IS containing acetonitrile) and samples were stored below −70° C. until bioanalysis. All samples were processed for analysis by protein precipitation using acetonitrile (ACN) and analyzed with fit for purpose LC/MS/MS method (LLOQ: 10.04 ng/mL for UPHH-123 in blood). Pharmacokinetic parameters were calculated using the non-compartmental analysis tool of Phoenix WinNonlin (Version 7.0). Mean pharmacokinetic parameters are summarized below: […]", "note": "Where “and” joins values, the source holds several entries; their conditions need not be identical. Identical values can stand only once. Like-named read-outs stand apart in the source and are kept apart here.", "data": [{"smiles": "COc1ccc(Cn2ccc3ccc(C(=O)NO)cc32)cc1", "note": "[UPHH-123]", "values": [{"measurement": "blood concentrations quantifiable up to", "setting": "10.4 mg/kg IP", "value": "up to 24 hr"}, {"measurement": "Blood Concentration, individual animal", "setting": "10.4 mg/kg IP, 0.08 hr", "value": "2082.46 ng/mL and 2293.56 ng/mL"}, {"measurement": "Blood Concentration, individual animal", "setting": "10.4 mg/kg IP, 0.25 hr", "value": "2572.69 ng/mL and 4414.44 ng/mL"}, {"measurement": "Blood Concentration, individual animal", "setting": "10.4 mg/kg IP, 0.5 hr", "value": "675.87 ng/mL and 848.67 ng/mL"}, {"measurement": "Blood Concentration, individual animal", "setting": "10.4 mg/kg IP, 1 hr", "value": "105.72 ng/mL and 180.27 ng/mL"}, {"measurement": "Blood Concentration, individual animal", "setting": "10.4 mg/kg IP, 2 hr", "value": "39.90 ng/mL and 98.73 ng/mL and 125.25 ng/mL"}, {"measurement": "Blood Concentration, individual animal", "setting": "10.4 mg/kg IP, 4 hr", "value": "47.81 ng/mL and 118.38 ng/mL and 92.93 ng/mL"}, {"measurement": "Blood Concentration, individual animal", "setting": "10.4 mg/kg IP, 8 hr", "value": "26.21 ng/mL and 17.80 ng/mL"}, {"measurement": "Blood Concentration, individual animal", "setting": "10.4 mg/kg IP, 24 hr, below LLOQ 10.04 ng/mL = zero", "value": "0.00 ng/mL (2×) and 14.58 ng/mL"}, {"measurement": "blood concentrations quantifiable up to", "setting": "52 mg/kg IP", "value": "up to 24 hr"}, {"measurement": "Blood Concentration, individual animal", "setting": "52 mg/kg IP, 0.08 hr", "value": "7841.88 ng/mL and 4635.35 ng/mL"}, {"measurement": "Blood Concentration, individual animal", "setting": "52 mg/kg IP, 0.25 hr", "value": "6058.02 ng/mL and 5694.33 ng/mL"}, {"measurement": "Blood Concentration, individual animal", "setting": "52 mg/kg IP, 0.5 hr", "value": "3520.30 ng/mL and 4708.54 ng/mL"}, {"measurement": "Blood Concentration, individual animal", "setting": "52 mg/kg IP, 1 hr", "value": "2031.75 ng/mL and 2659.04 ng/mL"}, {"measurement": "Blood Concentration, individual animal", "setting": "52 mg/kg IP, 2 hr", "value": "315.76 ng/mL and 238.47 ng/mL and 525.92 ng/mL"}, {"measurement": "Blood Concentration, individual animal", "setting": "52 mg/kg IP, 4 hr", "value": "442.67 ng/mL and 145.43 ng/mL and 125.55 ng/mL"}, {"measurement": "Blood Concentration, individual animal", "setting": "52 mg/kg IP, 8 hr", "value": "167.15 ng/mL and 107.02 ng/mL"}, {"measurement": "Blood Concentration, individual animal", "setting": "52 mg/kg IP, 24 hr, below LLOQ 10.04 ng/mL = zero", "value": "0.00 ng/mL (2×) and 10.38 ng/mL"}, {"measurement": "dose related increase in plasma exposure", "setting": "from 10.4 to 52 mg/kg IP", "value": 3.6, "unit": "fold"}, {"measurement": "concentration at 0.08 hr", "setting": "10.4 mg/kg, 10.4 mg/kg IP, 0.08 hr, read-out: Blood Concentration, Mean", "value": 1990, "unit": "ng/mL"}, {"measurement": "concentration at 0.08 hr", "setting": "10.4 mg/kg, 10.4 mg/kg IP, 0.08 hr, read-out: Blood Concentration, individual animal", "value": 1600, "unit": "ng/mL"}, {"measurement": "concentration at 0.25 hr", "setting": "10.4 mg/kg, 10.4 mg/kg IP, 0.25 hr, read-out: Blood Concentration, Mean", "value": 3810, "unit": "ng/mL"}, {"measurement": "concentration at 0.25 hr", "setting": "10.4 mg/kg, 10.4 mg/kg IP, 0.25 hr, read-out: Blood Concentration, individual animal", "value": 4440, "unit": "ng/mL"}, {"measurement": "concentration at 0.5 hr", "setting": "10.4 mg/kg, 10.4 mg/kg IP, 0.5 hr, read-out: Blood Concentration, Mean", "value": 681, "unit": "ng/mL"}, {"measurement": "concentration at 0.5 hr", "setting": "10.4 mg/kg, 10.4 mg/kg IP, 0.5 hr, read-out: Blood Concentration, individual animal", "value": 519, "unit": "ng/mL"}, {"measurement": "concentration at 1 hr", "setting": "10.4 mg/kg, 10.4 mg/kg IP, 1 hr, read-out: Blood Concentration, Mean", "value": 148, "unit": "ng/mL"}, {"measurement": "concentration at 1 hr", "setting": "10.4 mg/kg, 10.4 mg/kg IP, 1 hr, read-out: Blood Concentration, individual animal", "value": 158, "unit": "ng/mL"}, {"measurement": "concentration at 2 hr", "setting": "10.4 mg/kg, 10.4 mg/kg IP, 2 hr", "value": 88, "unit": "ng/mL"}, {"measurement": "concentration at 4 hr", "setting": "10.4 mg/kg, 10.4 mg/kg IP, 4 hr", "value": 86.4, "unit": "ng/mL"}, {"measurement": "concentration at 8 hr", "setting": "10.4 mg/kg, 10.4 mg/kg IP, 8 hr, read-out: Blood Concentration, Mean", "value": 22.6, "unit": "ng/mL"}, {"measurement": "concentration at 8 hr", "setting": "10.4 mg/kg, 10.4 mg/kg IP, 8 hr, read-out: Blood Concentration, individual animal", "value": 23.9, "unit": "ng/mL"}, {"measurement": "concentration at 24 hr", "setting": "10.4 mg/kg, 10.4 mg/kg IP, 24 hr", "value": 14.6, "unit": "ng/mL"}, {"measurement": "concentration at 0.08 hr", "setting": "52 mg/kg, 52 mg/kg IP, 0.08 hr, read-out: Blood Concentration, Mean", "value": 6160, "unit": "ng/mL"}, {"measurement": "concentration at 0.08 hr", "setting": "52 mg/kg, 52 mg/kg IP, 0.08 hr, read-out: Blood Concentration, individual animal", "value": 6000, "unit": "ng/mL"}, {"measurement": "concentration at 0.25 hr", "setting": "52 mg/kg, 52 mg/kg IP, 0.25 hr, read-out: Blood Concentration, Mean", "value": 5680, "unit": "ng/mL"}, {"measurement": "concentration at 0.25 hr", "setting": "52 mg/kg, 52 mg/kg IP, 0.25 hr, read-out: Blood Concentration, individual animal", "value": 5280, "unit": "ng/mL"}, {"measurement": "concentration at 0.5 hr", "setting": "52 mg/kg, 52 mg/kg IP, 0.5 hr, read-out: Blood Concentration, Mean", "value": 3820, "unit": "ng/mL"}, {"measurement": "concentration at 0.5 hr", "setting": "52 mg/kg, 52 mg/kg IP, 0.5 hr, read-out: Blood Concentration, individual animal", "value": 3230, "unit": "ng/mL"}, {"measurement": "concentration at 1 hr", "setting": "52 mg/kg, 52 mg/kg IP, 1 hr, read-out: Blood Concentration, Mean", "value": 2330, "unit": "ng/mL"}, {"measurement": "concentration at 1 hr", "setting": "52 mg/kg, 52 mg/kg IP, 1 hr, read-out: Blood Concentration, individual animal", "value": 2280, "unit": "ng/mL"}, {"measurement": "concentration at 2 hr", "setting": "52 mg/kg, 52 mg/kg IP, 2 hr", "value": 360, "unit": "ng/mL"}, {"measurement": "concentration at 4 hr", "setting": "52 mg/kg, 52 mg/kg IP, 4 hr", "value": 238, "unit": "ng/mL"}, {"measurement": "concentration at 8 hr", "setting": "52 mg/kg, 52 mg/kg IP, 8 hr, read-out: Blood Concentration, Mean", "value": 145, "unit": "ng/mL"}, {"measurement": "concentration at 8 hr", "setting": "52 mg/kg, 52 mg/kg IP, 8 hr, read-out: Blood Concentration, individual animal", "value": 160, "unit": "ng/mL"}, {"measurement": "concentration at 24 hr", "setting": "52 mg/kg, 52 mg/kg IP, 24 hr", "value": 10.4, "unit": "ng/mL"}, {"measurement": "AUC(0-inf)", "setting": "10.4 mg/kg IP", "value": 1950, "unit": "ng·h/mL"}, {"measurement": "AUC(0-t)", "setting": "10.4 mg/kg IP", "value": 1850, "unit": "ng·h/mL"}, {"measurement": "Cmax", "setting": "10.4 mg/kg IP", "value": 3810, "unit": "ng/mL"}, {"measurement": "Tmax", "setting": "10.4 mg/kg IP", "value": 15, "unit": "min"}, {"measurement": "AUC(0-inf)", "setting": "52 mg/kg IP", "value": 7640, "unit": "ng·h/mL"}, {"measurement": "AUC(0-t)", "setting": "52 mg/kg IP", "value": 6680, "unit": "ng·h/mL"}, {"measurement": "Cmax", "setting": "52 mg/kg IP", "value": 6160, "unit": "ng/mL"}, {"measurement": "Tmax", "setting": "52 mg/kg IP", "value": 4.8, "unit": "min"}]}]}
